Measured values taken from US4738963A, “Method for the treatment of incontinence in mammals” (Beecham Group p.l.c., priority 1985, dated 1988).
Like-named read-outs stand apart in the source and are kept apart here.

Columns and labels:
Assay type in all cases: cell-based
[1] = system: rat urinary bladder (detrusor) strip; experiment: Rat Detrusor Strip Screen: inhibition of electrically induced isometric contractions
Experimental: Rat Detrusor Strip Screen
Male Wistar Charles River rats (Crl: WI BR) weighing 300-350 g were used.
The urinary bladder was removed and a longitudinal strip 3 mm wide was cut from the urethra to the apex of the bladder.
The strip was immediately immersed in a 20 ml bath containing Tyrode with double millimolar concentration of glucose (11.1 instead of 5.55) and with addition of sucrose (13.3 millimolar), kept at 37° C. and aerated with a mixture of O2 95% and CO2 5%.
Tyrode composition was (mM): NaCl 136.8, KCl 2.68, CaCl2 1.80, MgSO4.7H2 O 1.05, NaH2 PO4.H2 O 0.41, NaHCO3 11.9, glucose 11.1 sucrose 13.3. The strip was in direct contact with one of the two platinum electrodes placed on the top and bottom of the organ bath. Placed under an initial tension of 2 g, the strip was then allowed to relax until a baseline of about 1 g. After a 5 min equilibration period isometric contractions were induced by a GRASS S88 2 channel stimulator using the following parameters trains of pulses of 2 sec duration each every 100 sec; square wave pulse of volts (60-70); duration 0.7 ms and 30 Hz.
When the contractions became constant (60-90 min), the strips were exposed to the test compound. The isometric contractions were measured with a Basile DYl force transducer connect to Battaglia Rangoni 4 channel recorder. The results are expressed as per cent of contraction inhibition.

Rat isolated portal vein = experiment: Rat isolated portal vein: spontaneous contractions and contractions due to added calcium; settings: 0.25 h
Experimental: (1) Rat isolated portal vein.
Male Sprague Dawley rats (250-350) were killed by cervical dislocation. Portal veins (2-3 cm in length) were set up under 0.8-1 g tension in a 10 ml organ bath containing Krebs-Henseleit solution, at 37° C., of the following composition (mM): NaCl 118, NaHCO3 25, glucose 5, KH2 PO4 1.18, KCl 4.69, MgSO4 0.59, CaCl2.H2 O 1.87. The tissue was aerated with a 95% oxygen and 5% carbon dioxide mixture. Isometric tension was recorded using a Devices strain gauge and recorder. Each preparation was allowed 1 h to equilibrate before the addition of test compound. The ability of a compound to inhibit the contractions due to added calcium (3 mM CaCl2) was determined in tissues bathed in Krebs-Henseleit solution containing 0.05 mM CaCl2 (in order to reduce spontaneous contractions). Then percentage inhibition (mean± s.e.m.; 6-9 tissues) of the amplitude of the spontaneous contractions, and contractions due to added calcium, was determined after 15 min contact time with test compound.

[2] = system: Rabbit isolated mesenteric artery; experiment: Rabbit isolated mesenteric artery: relaxation of contractions due to KCl; settings: Oryctolagus cuniculus
Experimental: (2) Rabbit isolated mesenteric artery.
Mesenteric arteries (3 mm rings) were removed from male New Zealand White rabbits and mounted, at a resting tension of 1.5-2.0 g, in a 10 ml organ bath containing a Ringer solution, at 37° C., of the following composition (mM): NaCl 120.8; KCl 5.9; CaCl2 2.5; MgCl2 1.2; HEPES 5.8; glucose 11.5. The bathing solution was bubbled with a 95% oxygen and 5% carbon dioxide mixture. Each preparation was allowed 1-11/2h to equilibrate before the addition of either 30 or 90 mM KCl to contract the tissue. The ability of test compound to relax the sustained contraction due to KCL was determined by assessing the % reduction (mean± s.e.m.; 4-9 tissues) produced by varying concentrations of test compound.

Row | Compound | Mean % inhibition ([1]; Molar Conc 1 × 10^-5) | Mean % inhibition ([1]; Molar Conc 3 × 10^-5) | further results
1 | CC1(C)Oc2ccc(C#N)cc2[C@@H](N2CCCC2=O)[C@@H]1O (relative stereo) [Compound 1, 6-cyano-3,4-dihydro-2,2-dimethyl-trans-4-(2-oxo-1-pyrrolidinyl)-2H-benzo[b]pyran-3-ol] | -46.4% | – | IC50 (Rat isolated portal vein; amplitude of spontaneous contractions, 15 min contact time, read-out: IC50 Spontaneous (contractions)): 120 nM; IC50 (Rat isolated portal vein; contractions due to added calcium (3 mM CaCl2) in Krebs-Henseleit with 0.05 mM CaCl2, 15 min contact time, read-out: IC50 Ca^2+ (3 mM)): 150 nM; IC50 ([2]; sustained contraction due to 30 mM KCl, read-out: IC50 30 mM KCl): 510 nM; IC50 ([2]; sustained contraction due to 90 mM KCl, read-out: IC50 90 mM KCl): > 10000 nM
2 | CC1(C)Oc2ccc(C#N)cc2[C@@H](N2CCCCC2=O)[C@@H]1O (relative stereo) [Compound 3] | – | – | Mean % inhibition ([1]; Molar Conc 1 × 10^-6): -34.2%
3 | CC(=O)N[C@@H]1c2cc(C#N)ccc2OC(C)(C)[C@H]1O (relative stereo) [Compound 4, trans-4-N-acetylamino-6-cyano-3,4-dihydro-2,2-dimethyl-2H-benzo[b]pyran-3-ol] | – | -32.9% | –
4 | CC1(C)Oc2ccc(C#N)cc2[C@@H](N2CCNCC2=O)[C@@H]1O (relative stereo) [Compound 5, 6-cyano-3,4-dihydro-2,2-dimethyl-trans 4-(2-oxo-1-piperazinyl)-2H-benzo[t]pyran-3-ol] | -37.2% | – | –
5 | CNC(=O)N[C@@H]1c2cc(C#N)ccc2OC(C)(C)[C@H]1O (relative stereo) [Compound 6, trans-6-cyano-3,4-dihydro-2,2-dimethyl-4-(N-methylureido)-2H-1-benzo[b]pyran-3-ol] | – | -44.2% | –
6 | CC1(C)C=C(N2CCCC2=O)c2cc(C#N)ccc2O1 [Compound 2, 6-cyano-2,2-dimethyl-4-(2-oxo-1-pyrrolidinyl)-2H-1-benzopyran] | -59.7% | – | –
